Results: PMC6934184, “Selective DNA-PKcs inhibition extends the therapeutic index of localized radiotherapy and chemotherapy” (The Journal of Clinical Investigation, 2019)

Target: T1, EPHB3 (Homo sapiens, UniProt P54753)
T1 construct: purchased Thermo Fisher Scientific (Life Technologies) SelectScreen
Test: SelectScreen Z'LYTE
Assay type: biochemical
Summary of the method: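 Percent values come from Thermo SelectScreen profiling of NU5455, combining activity and binding assays. CSF1R was run in Z'LYTE format at Km app ATP, and CAMK1 in Adapta format with ATP listed at 10.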

T1 sequence (P54753 34-998): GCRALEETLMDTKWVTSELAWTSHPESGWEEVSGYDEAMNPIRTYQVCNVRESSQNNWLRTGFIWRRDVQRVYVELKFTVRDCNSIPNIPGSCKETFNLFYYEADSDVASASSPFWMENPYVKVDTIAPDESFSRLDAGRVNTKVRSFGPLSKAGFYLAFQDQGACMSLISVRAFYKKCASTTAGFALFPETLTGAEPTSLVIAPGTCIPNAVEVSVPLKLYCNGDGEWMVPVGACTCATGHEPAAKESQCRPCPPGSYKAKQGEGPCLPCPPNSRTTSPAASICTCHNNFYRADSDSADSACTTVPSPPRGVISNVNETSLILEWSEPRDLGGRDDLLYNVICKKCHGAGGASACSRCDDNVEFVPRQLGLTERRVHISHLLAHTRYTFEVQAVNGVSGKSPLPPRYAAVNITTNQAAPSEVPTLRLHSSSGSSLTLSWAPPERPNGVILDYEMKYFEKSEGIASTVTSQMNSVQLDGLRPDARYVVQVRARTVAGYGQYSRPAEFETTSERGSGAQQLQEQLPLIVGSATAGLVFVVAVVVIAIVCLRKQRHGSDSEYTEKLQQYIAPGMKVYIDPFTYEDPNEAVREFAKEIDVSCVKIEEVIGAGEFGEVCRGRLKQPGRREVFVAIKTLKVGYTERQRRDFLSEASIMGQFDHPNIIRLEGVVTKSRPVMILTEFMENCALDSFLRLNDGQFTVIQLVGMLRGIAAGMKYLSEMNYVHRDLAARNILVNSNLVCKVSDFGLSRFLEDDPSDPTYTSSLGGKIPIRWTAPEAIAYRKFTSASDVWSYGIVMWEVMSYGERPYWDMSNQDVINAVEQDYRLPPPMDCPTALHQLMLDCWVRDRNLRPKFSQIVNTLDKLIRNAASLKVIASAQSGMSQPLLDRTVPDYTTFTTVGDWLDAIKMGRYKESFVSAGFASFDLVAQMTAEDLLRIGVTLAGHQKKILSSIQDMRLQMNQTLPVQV

How did the inhibition at 1 µM turn out when `CN(C(=O)CN1CCOCC1)c1ccc2sc3c(-c4cccc5c(=O)cc(N6CC7CCC(C6)O7)oc45)cccc3c2c1` [NU5455] was run?
The inhibition at 1 µM was 1.1%.
